Results as given in patent US20240254103A9, “NOVEL PYRIMIDINE DERIVATIVE, AND COMPOSITION FOR PREVENTING OR TREATING NEURODEGENERATIVE DISEASES AND CANCER, COMPRISING SAME” (WHAN IN PHARMACEUTICAL CO., LTD., priority 2020, published 2024).

Key:
mutant LRRK2 (G2019S) = target: T1, mutant LRRK2 (G2019S) (Homo sapiens, UniProt Q5S007, G2019S); experiment: Inhibitory activity against LRRK2: competition binding to ligand-affinity beads, DNA-tagged kinase quantitated by qPCR; details: 100 nM compound; % of ctrl; read-out: Remaining kinase activity(%) at 100 nM LRRK2(G2019Smutant)
T1 construct: DNA tag for qPCR detection (not a peptide; the protein part that carries it is not described); made in house; host or cells: HEK 293 cells (the same paragraph also describes T7 phage grown in E. coli BL21)
Method in brief: (§1)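 Human LRRK2 H970–E2527, wild type or G2019S, was expressed as DNA-tagged kinase (T7 phage in E. coli or HEK293) and competed for 1 h against a biotinylated ligand on streptavidin beads. Bound kinase was eluted with 0.5 µM free ligand and quantified by qPCR. Values are % of control at 100 nM (both forms) and at 10 and 50 nM (wild type).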

wild-type LRRK2 = target: T2, wild-type LRRK2 (Homo sapiens, UniProt Q5S007); experiment: as above; details: 100 nM compound; % of ctrl; read-out: Remaining kinase activity(%) at 100 nM LRRK2(WT)
T2 construct: DNA tag for qPCR detection (not a peptide; the protein part that carries it is not described); made in house; host or cells: HEK 293 cells (the same paragraph also describes T7 phage grown in E. coli BL21)
Method in brief: as §1

T2 sequence (Q5S007 970-2527): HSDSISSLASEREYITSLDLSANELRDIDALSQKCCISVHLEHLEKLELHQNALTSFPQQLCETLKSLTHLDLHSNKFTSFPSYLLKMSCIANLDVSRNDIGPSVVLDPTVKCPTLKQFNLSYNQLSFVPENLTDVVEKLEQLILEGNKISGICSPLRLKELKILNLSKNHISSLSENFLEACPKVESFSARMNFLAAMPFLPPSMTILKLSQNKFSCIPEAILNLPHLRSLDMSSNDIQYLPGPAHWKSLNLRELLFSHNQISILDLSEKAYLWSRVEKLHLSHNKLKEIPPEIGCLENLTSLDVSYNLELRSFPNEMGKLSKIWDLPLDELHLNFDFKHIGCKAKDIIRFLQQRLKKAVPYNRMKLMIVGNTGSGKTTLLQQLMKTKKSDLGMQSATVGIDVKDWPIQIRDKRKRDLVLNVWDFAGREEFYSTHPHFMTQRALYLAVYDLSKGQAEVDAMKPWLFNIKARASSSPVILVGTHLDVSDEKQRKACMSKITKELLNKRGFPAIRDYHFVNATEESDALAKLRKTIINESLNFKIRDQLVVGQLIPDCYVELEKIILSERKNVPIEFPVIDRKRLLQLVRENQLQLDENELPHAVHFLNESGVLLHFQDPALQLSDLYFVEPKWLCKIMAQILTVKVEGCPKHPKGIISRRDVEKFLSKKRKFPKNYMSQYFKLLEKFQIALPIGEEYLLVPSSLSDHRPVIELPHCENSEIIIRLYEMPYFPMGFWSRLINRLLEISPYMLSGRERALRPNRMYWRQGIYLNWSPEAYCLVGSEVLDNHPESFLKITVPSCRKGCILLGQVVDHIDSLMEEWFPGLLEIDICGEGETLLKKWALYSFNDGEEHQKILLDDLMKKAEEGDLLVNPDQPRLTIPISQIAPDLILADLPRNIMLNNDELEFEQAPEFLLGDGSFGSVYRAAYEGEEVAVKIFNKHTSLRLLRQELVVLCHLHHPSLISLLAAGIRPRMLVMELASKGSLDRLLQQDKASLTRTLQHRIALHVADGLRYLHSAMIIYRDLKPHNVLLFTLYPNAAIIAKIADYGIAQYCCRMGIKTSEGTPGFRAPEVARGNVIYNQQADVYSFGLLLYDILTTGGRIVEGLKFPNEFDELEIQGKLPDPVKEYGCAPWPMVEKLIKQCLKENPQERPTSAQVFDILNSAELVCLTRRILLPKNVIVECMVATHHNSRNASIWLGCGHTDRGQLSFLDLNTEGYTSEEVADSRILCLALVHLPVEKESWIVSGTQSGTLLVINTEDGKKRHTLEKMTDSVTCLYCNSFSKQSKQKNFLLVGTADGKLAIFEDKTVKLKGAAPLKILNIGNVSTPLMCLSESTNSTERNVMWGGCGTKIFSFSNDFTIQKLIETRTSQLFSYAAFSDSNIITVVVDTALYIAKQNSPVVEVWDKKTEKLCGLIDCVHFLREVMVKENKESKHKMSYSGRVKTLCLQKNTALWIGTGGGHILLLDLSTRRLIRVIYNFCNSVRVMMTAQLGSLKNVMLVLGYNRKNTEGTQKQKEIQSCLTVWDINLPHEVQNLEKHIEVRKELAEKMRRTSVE
T1 sequence (Q5S007 970-2527 G2019S): as the sequence (Q5S007 970-2527) above, with G1050S counted along it

Row | remaining binding at 0.1 µM (mutant LRRK2 (G2019S)) [%] | remaining binding at 0.1 µM (wild-type LRRK2) [%] | SMILES
1 | < 30 | < 30 | COCCn1cc(-c2nc(Nc3ccc(C(=O)N4CCOCC4)cc3OC)ncc2Cl)cn1 [Compound 28, (4-((5-chloro-4-(1-(2-methoxyethyl)-1H-pyrazol-4-yl)pyrimidin-2-yl)amino)-3-methoxyphenyl)(morpholino)methanone]
2 | < 30 | < 50 | COc1cc(C(=O)N2CCC3(CC2)COC3)ccc1Nc1ncc(Cl)c(-c2cnn(C)c2)n1 [Compound 32, (4-((5-chloro-4-(1-methyl-1H-pyrazol-4-yl)pyrimidin-2-yl)amino)-3-methoxyphenyl)(2-oxa-7-azaspiro[3.5]nonan-7-yl)methanone]
3 | < 50 | < 30 | COc1cc(C(=O)N2CC3(CCO3)C2)ccc1Nc1ncc(Cl)c(-c2cnn(C)c2)n1 [Compound 33, (4-((5-chloro-4-(1-methyl-1H-pyrazol-4-yl)pyrimidin-2-yl)amino)-3-methoxyphenyl)(1-oxa-6-azaspiro[3.3]heptan-6-yl)methanone]
4 | < 30 | < 10 | COc1cc(C(=O)N2CC(N3CCOCC3)C2)ccc1Nc1ncc(Cl)c(-c2cnn(C)c2)n1 [Compound 43, (4-((5-chloro-4-(1-methyl-1H-pyrazol-4-yl)pyrimidin-2-yl)amino)-3-methoxyphenyl)(3-morpholinoazetidin-1-yl)methanone]
5 | < 10 | < 10 | COc1cc(C(=O)N2CCN(C3COC3)CC2)ccc1Nc1ncc(Cl)c(-c2cnn(C)c2)n1 [Compound 50, (4-((5-chloro-4-(1-methyl-1H-pyrazol-4-yl)pyrimidin-2-yl)amino)-3-methoxyphenyl)(4-(oxetan-3-yl)piperazin-1-yl)methanone]
6 | < 30 | < 30 | COc1cc(C(=O)N2C[C@H]3CC[C@@H](C2)O3)ccc1Nc1ncc(Cl)c(-c2cnn(C)c2)n1 [Compound 51, ((1R,5S)-8-oxa-3-azabicyclo[3.2.1]octan-3-yl)(4-((5-chloro-4-(1-methyl-1H-pyrazol-4-yl)pyrimidin-2-yl)amino)-3-methoxyphenyl)methanone]
7 | < 10 | < 10 | CCn1cc(-c2nc(Nc3ccc(C(=O)N4CCOCC4)cc3OC)ncc2Cl)cn1 [Compound 56, (4-((5-chloro-4-(1-ethyl-1H-pyrazol-4-yl)pyrimidin-2-yl)amino)-3-methoxyphenyl)(morpholino)methanone]
8 | < 10 | < 10 | CCCn1cc(-c2nc(Nc3ccc(C(=O)N4CCOCC4)cc3OC)ncc2Cl)cn1 [Compound 57, (4-((5-chloro-4-(1-propyl-1H-pyrazol-4-yl)pyrimidin-2-yl)amino)-3-methoxyphenyl)(morpholino)methanone]
9 | < 10 | < 30 | COc1cc(C(=O)N2CCOCC2)ccc1Nc1ncc(Cl)c(-c2cnn(C3CC3)c2)n1 [Compound 58, (4-((5-chloro-4-(1-cyclopropyl-1H-pyrazol-4-yl)pyrimidin-2-yl)amino)-3-methoxyphenyl)(morpholino)methanone]

More lines, now with the values behind:

Row | SMILES | remaining binding at 0.1 µM (mutant LRRK2 (G2019S)) [%] | remaining binding at 0.1 µM (wild-type LRRK2) [%]
10 | COc1cc(C(=O)NCC(C)(C)O)ccc1Nc1ncc(Cl)c(-c2cnn(C)c2)n1 [Compound 26, 4-((5-chloro-4-(1-methyl-1H-pyrazol-4-yl)pyrimidin-2-yl)amino)-N-(2-hydroxy-2-methylpropyl)-3-methoxybenzamide] | < 50 | < 50
11 | COc1cc(C(=O)N2CCOCC2)ccc1Nc1ncc(Cl)c(-c2cnn(C(C)(C)CC#N)c2)n1 [Compound 27, 3-(4-(5-chloro-2-((2-methoxy-4-(morpholine-4-carbonyl)phenyl)amino)pyrimidin-4-yl)-1H-pyrazol-1-yl)-3-methylbutanenitrile] | < 10 | < 10
12 | COc1cc(C(=O)N2CCOCC2)ccc1Nc1ncc(C(F)(F)F)c(-c2cnn(C3CCOCC3)c2)n1 [Compound 29, (3-methoxy-4-((4-(1-(tetrahydro-2H-pyran-4-yl)-1H-pyrazol-4-yl)-5-(trifluoromethyl)pyrimidin-2-yl)amino)phenyl)(morpholino)methanone] | < 30 | < 50
13 | COc1cc(C(=O)N2CCC(N3CCN(C)CC3)CC2)ccc1Nc1ncc(C(F)(F)F)c(-c2cnn(C)c2)n1 [Compound 31, (3-methoxy-4-((4-(1-methyl-1H-pyrazol-4-yl)-5-(trifluoromethyl)pyrimidin-2-yl)amino)phenyl)(4-(4-methylpiperazin-1-yl)piperidin-1-yl)methanone] | < 30 | < 10
14 | COc1cc(C(=O)N2CCN(C(C)C)CC2)ccc1Nc1ncc(Cl)c(-c2cnn(C)c2)n1 [Compound 34, (4-((5-chloro-4-(1-methyl-1H-pyrazol-4-yl)pyrimidin-2-yl)amino)-3-methoxyphenyl)(4-isopropylpiperazin-1-yl)methanone] | < 30 | < 10
15 | COc1cc(C(=O)N2CCC3(CC2)COC3)ccc1Nc1ncc(Cl)c(-c2cnn(C3CCOCC3)c2)n1 [Compound 35, (4-((5-chloro-4-(1-(tetrahydro-2H-pyran-4-yl)-1H-pyrazol-4-yl)pyrimidin-2-yl)amino)-3-methoxyphenyl)(2-oxa-7-azaspiro[3.5]nonan-7-yl)methanone] | < 10 | < 30
16 | COc1cc(C(=O)NC2CCN(C)CC2)ccc1Nc1ncc(Cl)c(-c2cnn(C)c2)n1 [Compound 38, 4-((5-chloro-4-(1-methyl-1H-pyrazol-4-yl)pyrimidin-2-yl)amino)-3-methoxy-N-(1-methylpiperidin-4-yl)benzamide] | < 10 | < 10
17 | COc1cc(C(=O)N2CCC(F)(F)CC2)ccc1Nc1ncc(Cl)c(-c2cnn(C)c2)n1 [Compound 41, (4-((5-chloro-4-(1-methyl-1H-pyrazol-4-yl)pyrimidin-2-yl)amino)-3-methoxyphenyl)(4,4-difluoropiperidin-1-yl)methanone] | < 50 | < 30
18 | COc1cc(C(=O)N2CCOC(C)(C)C2)ccc1Nc1ncc(Cl)c(-c2cnn(C)c2)n1 [Compound 42, (4-((5-chloro-4-(1-methyl-1H-pyrazol-4-yl)pyrimidin-2-yl)amino)-3-methoxyphenyl)(2,2-dimethylmorpholino)methanone] | < 50 | < 30
19 | COc1cc(C(=O)N2CCN(C(C)=O)CC2)ccc1Nc1ncc(Cl)c(-c2cnn(C)c2)n1 [Compound 44, 1-(4-(4-((5-chloro-4-(1-methyl-1H-pyrazol-4-yl)pyrimidin-2-yl)amino)-3-methoxybenzoyl)piperazin-1-yl)ethan-1-one] | < 30 | < 10
20 | COc1cc(C(=O)N2CCN(C(C)C)CC2)ccc1Nc1ncc(C(F)(F)F)c(-c2cnn(C)c2)n1 [Compound 45, (4-isopropylpiperazin-1-yl)(3-methoxy-4-((4-(1-methyl-1H-pyrazol-4-yl)-5-(trifluoromethyl)pyrimidin-2-yl)amino)phenyl)methanone] | < 30 | < 30
21 | COc1cc(C(=O)N2CCOCC2)c(F)cc1Nc1ncc(C(F)(F)F)c(-c2cnn(C)c2)n1 [Compound 46, (2-fluoro-5-methoxy-4-((4-(1-methyl-1H-pyrazol-4-yl)-5-(trifluoromethyl)pyrimidin-2-yl)amino)phenyl)(morpholino)methanone] | < 10 | < 10
22 | COc1cc(C(=O)N2CCOCC2)c(F)cc1Nc1ncc(Cl)c(-c2cnn(C(C)C)c2)n1 [Compound 49, (4-((5-chloro-4-(1-isopropyl-1H-pyrazol-4-yl)pyrimidin-2-yl)amino)-2-fluoro-5-methoxyphenyl)(morpholino)methanone] | < 10 | < 10
23 | COc1cc(C(=O)c2ccncc2)ccc1Nc1ncc(Cl)c(-c2cnn(C(C)C)c2)n1 [Compound 54, (4-((5-chloro-4-(1-isopropyl-1H-pyrazol-4-yl)pyrimidin-2-yl)amino)-3-methoxyphenyl)(pyridin-4-yl)methanone] | < 30 | < 50
24 | COc1cc(C(=O)N2CCOCC2)ccc1Nc1ncc(Cl)c(-c2cnn(C(C)(C)C)c2)n1 [Compound 59, (4-((4-(1-(tert-butyl)-1H-pyrazol-4-yl)-5-chloropyrimidin-2-yl)amino)-3-methoxyphenyl)(morpholino)methanone] | < 10 | < 10
